target: T1, human CCR1 (Homo sapiens, UniProt P32246); experiment: CCR1 binding protocol (SPA, [125I]-MIP-1α displacement); conditions: cell membrane expressing human CCR1, 0.1 nM [125I]-MIP-1α, 4 hours at ambient temperature; read-out: Relative potency (IC50)
T1 sequence (P32246 1-355): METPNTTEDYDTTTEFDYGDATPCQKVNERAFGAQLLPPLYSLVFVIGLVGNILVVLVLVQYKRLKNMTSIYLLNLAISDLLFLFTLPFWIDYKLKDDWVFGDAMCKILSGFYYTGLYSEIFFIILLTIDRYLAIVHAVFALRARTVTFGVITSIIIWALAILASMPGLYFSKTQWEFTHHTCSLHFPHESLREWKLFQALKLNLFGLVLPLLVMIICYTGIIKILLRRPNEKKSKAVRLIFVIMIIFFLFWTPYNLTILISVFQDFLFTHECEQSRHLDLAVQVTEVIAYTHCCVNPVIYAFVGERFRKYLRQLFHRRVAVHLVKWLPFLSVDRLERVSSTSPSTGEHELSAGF
Method: The following protocol was used to test compounds for CCR1 binding. A mixture, including scintillation proximity assay (SPA) beads and cell membrane expressing human CCR1, was prepared in assay buffer (130 mM NaCl+5 mM KCl+1 mM MnCl+50 mM Tris HCl at pH 7.4+0.1% bovine serum albumin (BSA)) at the ratio of 50 μg/ml membrane to 10 mg/ml SPA beads. 10 μl of the mixture was transferred to each well of a 384-well assay plate yielding a final concentration for the membrane and SPA beads of 0.5 μg/well and 100 μg/well, respectively
To generate different concentrations of the test compound, compound stocks were prepared using 10 step ½ log dilutions with a high concentration of 10 mM in DMSO and the lowest concentration being DMSO only without compound. An intermediate 40× dilution was then prepared in the assay buffer. The compound was then transferred at 10 μl/well to the assay plate. 0.5 nM [^125 I]-labeled macrophage inflammatory protein-1α (MIP-1α, an endogenous CCR1 ligand) in the assay buffer was transferred to the assay plate at 5 μl/well, for a final ligand concentration of 0.1 nM. The assay plate was then centrifuged at 2500 rpm for 2 minutes and incubated for 4 hours at ambient temperature, at which time the raw data was recorded using microbeta. The IC50 was then calculated using Graphpad Prism.

| SMILES | IC50 [nM] |
| --- | --- |
| Cc1nc(C(F)(F)F)nc(C)c1NC(=O)N1CCC[C@@H]1c1nnc(C)n1Cc1ccc(Cl)cc1 [Compound 466] | < 50 |
| CC[C@H](NC(=O)N1CCC[C@@H]1c1nnc(C)n1Cc1ccc(Br)cc1)c1ccc(C(F)(F)F)nc1 [Compound 561] | < 50 |
| Cc1nnc([C@H]2CCCN2C(=O)Nc2ccc(Cl)cn2)n1Cc1ccc(Cl)cc1 [Compound 243] | 50 to 500 |
| O=C(N[C@H]1CCCOc2ccc(Cl)cc21)N1CCC[C@@H]1c1nncn1Cc1ccc(Cl)cc1 [Compound 159] | 50 to 500 |
| Cc1nnc([C@H]2CCCN2C(=O)Nc2ccc3c(c2)N(C)C(=O)CO3)n1Cc1ccc(F)cc1 [Compound 386] | 50 to 500 |
| Cc1cc(C(F)(F)F)cc(C)c1NC(=O)N1CCC[C@@H]1c1nnc(C)n1Cc1ccc(Cl)cc1 [Compound 102] | < 50 |
| O=C(N[C@H]1CCOc2cc(C(F)(F)F)ccc21)N1CCC[C@@H]1c1nnc(Cl)n1Cc1ccc(Cl)cc1 [Compound 194] | < 50 |
| Cc1nc(NC(=O)N2CCC[C@@H]2c2nnc(C)n2Cc2ccc(Cl)cc2)sc1C [Compound 596] | 500 to 5000 |
| Cc1nnc([C@H]2CCCN2C(=O)N[C@H]2CCOc3c(F)cccc32)n1Cc1ccc(Cl)cc1 [Compound 149] | < 50 |
| Cc1nnc([C@H]2C[C@@H](O)CN2C(=O)N[C@@H](C)c2ccc(Cl)cc2)n1Cc1ccc(Cl)cc1 [Compound 438] | < 50 |
| CN1C(=O)COc2ccc(NC(=O)N3CCC[C@@H]3c3oncc3Cc3ccc(Cl)cc3)cc21 [Compound 3] | 50 to 500 |
| Cc1nnc([C@H]2CCCN2C(=O)NC2(c3cccc(F)c3)CC2)n1Cc1ccc(Cl)cc1 [Compound 266] | < 50 |
| Cc1ncc(Cc2ccc(Cl)cc2)c([C@H]2CCCN2C(=O)Nc2c(C)cc(Cl)cc2C)n1 [Compound 18] | 50 to 500 |
| Cc1nnc([C@H]2C[C@@H](O)CN2C(=O)NCc2ccc(Cl)cc2Cl)n1Cc1ccc(Cl)cc1 [Compound 442] | < 50 |
| CCc1noc(CC)c1NC(=O)N1CCC[C@@H]1c1nnc(C)n1Cc1ccc(Cl)cc1 [Compound 287] | < 50 |
| Cc1nnc([C@H]2CCCN2C(=O)Nc2ccncc2)n1Cc1ccc(Cl)cc1 [Compound 237] | 50 to 500 |
| COCc1nnc([C@H]2CCCN2C(=O)N[C@@H](C)c2ccc(Cl)cc2)n1Cc1ccc(Cl)cc1 [Compound 463] | 50 to 500 |
| Cc1nnc([C@H]2CCCN2C(=O)NCC2CCN(S(C)(=O)=O)C2)n1Cc1ccc(Cl)cc1 (stereo partly drawn) [Compound 593] | 50 to 500 |
| Cc1nc([C@H]2CCCN2C(=O)Nc2ccc(C(F)(F)F)cc2)n(Cc2ccc(Cl)cc2)n1 [Compound 92] | 500 to 5000 |
| Cc1nnc([C@H]2C[C@@H](O)CN2C(=O)Nc2ccc(OC3CCOCC3)nc2)n1Cc1ccc(Cl)cc1 [Compound 558] | 500 to 5000 |
| Cc1nnc([C@H]2C3CC3CN2C(=O)Nc2ccc(Cl)cc2F)n1Cc1ccc(Cl)cc1 (stereo partly drawn) [Compound 565] | 50 to 500 |

| SMILES | IC50 [nM] |
| --- | --- |
| CC[C@H](NC(=O)N1CCC[C@@H]1c1nncn1Cc1ccc(Cl)cc1)c1cc2ccccc2o1 [Compound 116] | < 50 |
| Cc1nnc([C@H]2CCCN2C(=O)N[C@H]2CCOc3cc(C#N)ccc32)n1Cc1ccc(Cl)cc1 [Compound 207] | < 50 |
| Cc1nnc([C@H]2CCCN2C(=O)NC(C)(C)c2ccc(F)cc2)n1Cc1ccc(Cl)cc1 [Compound 275] | < 50 |
| Cc1nnc([C@H]2CCCN2C(=O)Nc2ccc3c(c2)N(C)C(=O)CO3)n1Cc1ccc(Cl)nc1 [Compound 381] | 500 to 5000 |
| Cc1ccnc(C)c1NC(=O)N1CCC[C@@H]1c1nnc(C)n1Cc1ccc(Cl)cc1 [Compound 316] | < 50 |
| Cc1nnc([C@H]2C[C@H](O)CN2C(=O)NC2(c3ccc(C(F)(F)F)cc3)CC2)n1Cc1ccc(Cl)cc1 [Compound 436] | < 50 |
| Cc1nnc([C@H]2C[C@@H](O)CN2C(=O)NC2(c3ccc(C(F)(F)F)cc3)CC2)n1Cc1ccc(Cl)cc1 [Compound 387] | < 50 |
| CC[C@H](NC(=O)N1CCC[C@@H]1c1ncnn1Cc1ccc(Cl)cc1)c1cc2ccccc2o1 [Compound 80] | < 50 |
| CCc1nnc([C@H]2CCCN2C(=O)Nc2c(C)cc(C(F)(F)F)cc2C)n1Cc1ccc(Cl)cc1 [Compound 167] | < 50 |
| Cc1nnc([C@H]2CCCN2C(=O)NC2(c3ccccc3)CC2)n1[C@H](C)c1ccc(Cl)cc1 [Compound 357] | 50 to 500 |
| CCOC1CCC(NC(=O)N2CCC[C@@H]2c2nnc(C)n2Cc2ccc(Cl)cc2)CC1 (stereo partly drawn) [Compound 305] | 500 to 5000 |
| CC(=O)N1CCC(CNC(=O)N2CCC[C@@H]2c2nnc(C)n2Cc2ccc(Cl)cc2)C1 (stereo partly drawn) [Compound 592] | 50 to 500 |
| Cc1cc(C)c(C(N)=O)cc1NC(=O)N1CCC[C@@H]1c1nnc(C)n1Cc1ccc(Cl)cc1 [Compound 363] | 50 to 500 |
| Cc1nnc([C@H]2CCCN2C(=O)N[C@@H](C)c2ccc(C(F)(F)F)nc2)n1Cc1ccc(Cl)cc1 [Compound 468] | < 50 |
| Cc1cc(C)c(S(=O)(=O)N(C)C)cc1NC(=O)N1CCC[C@@H]1c1nnc(C)n1Cc1ccc(Cl)cc1 [Compound 483] | < 50 |
| CC[C@H](NC(=O)N1CCC[C@@H]1c1nnc(C)n1Cc1ccc(Cl)cc1)c1c(C)noc1C [Compound 214] | < 50 |
| CC[C@@H](NC(=O)N1C[C@H](O)C[C@@H]1c1nnc(C)n1Cc1ccc(Cl)cc1)c1ccc(C)o1 [Compound 501] | 50 to 500 |
| Cc1nnc([C@H]2C[C@H](O)CN2C(=O)NC2CCOc3cc(C#N)ccc32)n1Cc1ccc(Cl)cc1 (stereo partly drawn) [Compound 440] | < 50 |
| Cc1cc(C)c(S(=O)(=O)N(C)C)cc1NC(=O)N1CCC[C@@H]1c1nnc(C)n1Cc1ccc(Br)cc1 [Compound 559] | < 50 |
| Cc1nnc([C@H]2CC(F)CN2C(=O)NCc2ccc(Cl)c(Cl)c2)n1Cc1ccc(Cl)cc1 (stereo partly drawn) [Compound 570] | < 50 |
| Cc1nnc([C@H]2CCCN2c2c(Nc3ccc(F)cc3F)c(=O)c2=O)n1Cc1ccc(Cl)cc1 [Compound 579] | 500 to 5000 |

| SMILES | IC50 [nM] |
| --- | --- |
| Cc1nnc([C@H]2CCCN2C(=O)N[C@H]2CCOc3cc(C(F)(F)F)ccc32)n1Cc1cccc(Cl)c1 [Compound 336] | 500 to 5000 |
| Cc1noc(C)c1N/C(=N/C#N)N1CCC[C@@H]1c1nnc(C)n1Cc1ccc(Cl)cc1 [Compound 319] | 50 to 500 |
| CC[C@H](NC(=O)N1CCC[C@@H]1c1nnc(C)n1Cc1ccc(Cl)cc1)c1cc2cc(C(F)(F)F)ccc2o1 [Compound 280] | < 50 |
| CSc1ccc(NC(=O)N2CCC[C@@H]2c2nccn2Cc2ccc(Cl)cc2)cc1 [Compound 37] | < 50 |
| CCc1noc(C)c1NC(=O)N1CCC[C@@H]1c1nnc(C)n1Cc1ccc(Cl)cc1 [Compound 290] | < 50 |
| Cc1nnc([C@H]2CCCN2C(=O)Nc2cc(C(N)=O)ccc2C(F)(F)F)n1Cc1ccc(Cl)cc1 [Compound 358] | 50 to 500 |
| Cc1nnc([C@H]2CCCN2C(=O)Nc2ccc(Cl)cc2F)n1[C@@H](C)c1ccc(Cl)cc1 [Compound 342] | 500 to 5000 |
| Cc1nnc([C@H]2CCCN2C(=O)Nc2ccccc2S(C)(=O)=O)n1Cc1ccc(Cl)cc1 [Compound 378] | 50 to 500 |
| Cc1cc(Cl)cc(C)c1N/C(=N/C#N)N1CCC[C@@H]1c1nnc(C)n1Cc1ccc(Cl)cc1 [Compound 198] | < 50 |
| O=C(NCc1ccc(C(F)(F)F)cc1)N1CCC[C@@H]1c1ncncc1Cc1ccc(Cl)cc1 [Compound 25] | 50 to 500 |
| Cc1cc(Cl)cc(C)c1NC(=O)N1CCC[C@@H]1c1nnc(C)n1Cc1ccc(Cl)cc1 [Compound 115] | < 50 |
| CC[C@@H](NC(=O)N1CCC[C@@H]1c1nnc(C)n1Cc1ccc(Cl)cc1)c1ccc(C(F)(F)F)nc1 [Compound 458] | < 50 |
| Cc1nnc([C@H]2CCCN2C(=O)NCc2ccccc2-c2cc(C(F)(F)F)nn2C)n1Cc1ccc(Cl)cc1 [Compound 622] | < 50 |
| N#C/N=C(\NC1(c2ccccc2)CC1)N1CCC[C@@H]1c1nnc(CO)n1Cc1ccc(Cl)cc1 [Compound 374] | 500 to 5000 |
| Cc1nnc([C@H]2CCCN2C(=O)N[C@@H](C)C(C)C)n1Cc1ccc(Cl)cc1 [Compound 343] | 50 to 500 |
| CC[C@H](NC(=O)N1CCC[C@@H]1c1nc(C)nn1Cc1ccc(Cl)cc1)c1cc2ccccc2o1 [Compound 95] | 50 to 500 |
| Cc1ncc(NC(=O)N2CCC[C@@H]2c2nnc(C)n2Cc2ccc(Cl)cc2)c(C)n1 [Compound 415] | < 50 |
| Cc1nnc([C@H]2CCCN2C(=O)NC2CCCc3cccc(Cl)c32)n1Cc1ccc(Cl)cc1 (stereo partly drawn) [Compound 267] | 50 to 500 |
| Cc1ccc(C(=O)O)cc1NC(=O)N1CCC[C@@H]1c1nnc(C)n1Cc1ccc(Cl)cc1 [Compound 241] | 50 to 500 |
| Cc1nnc([C@H]2CCCN2C(=O)Nc2cc(Cl)ccc2F)n1Cc1ccc(Cl)cc1 [Compound 419] | 50 to 500 |
| CC(=O)N1CCC(CNC(=O)N2CCC[C@@H]2c2nnc(C)n2Cc2ccc(Cl)cc2)CC1 [Compound 598] | 50 to 500 |
